Test [1] deals with Splenic B cell from Balb/c nu/nu mice. Nature of the test: LPS-induced antibody production from mouse B cells in vitro. Format: cell-based. To be noted: Mouse spleen, stimulus LPS/IL-4, readout IgM, mean of at least two experiments. How it is done:
The LPS-induced B cell functions were investigated according to a protocol adapted from Moon (Moon et al 1989) with minor modifications: Splenic B cell from Balb/c nu/nu mice were cultured with mIL-4, mIL-5 and LPS in the presence of titrated amounts of compound. The final concentrations were 0.5×10^5 splenocytes/well, 500 U/ml mIL-4, 500 U/ml mIL-5, and 50 μg/ml LPS. Supernatants were analyzed for antibody production by ELISA after 6 days of incubation.

Test [2] concerns Mouse BCR transgenic B cells. Nature of the test: Proinflammatory cytokine release of mouse BCR transgenic B cells. To be noted: Mouse BCR tg B cell, stimulus HEL, mean of at least two experiments. In kind it is cell-based. The text has this: Purification of CD19^+ splenic B cells from MD4 HEL BcR Tg mice MD4 HEL BcR transgenic B10.BR (MD4 B10.BR) mice were a kind gift from Prof. Jose Moreno (Research Unit on Autoimmune Diseases, Centro Medico Nacional Siglo XXI, Mexico).
The spleens were isolated from MD4 B10.BR and non-transgenic litter control B10.BR mice after sacrificed by exposure to excess amount of isoflurane. The isolated spleens were suspended in RPMI1640 (Invitrogen, #31870), and dissociated by GentleMACS Dissociator (Miltenyi Biotec), and filtrated with Cell Strainer (BD Falcon, 70 μm mesh, #352350). […] The purity was determined via the proportion of CD19 cells in the separated fraction in FACS analysis, and was more than 95%.
FACS Data was analyzed, and their mean fluorescence intensity (MFI) were calculated with FlowJo software (Tree Star Inc). The IC50 values were calculated with GraphPad PRISM ver 6.0 software (GraphPad Software Inc).
One million of B cells purified from MD4 B10.BR as written in the section 2.1 was suspended in 200 μl of complete culture medium, and stimulated with 100 μM of HEL proteins with soluble CD40 ligand at 37° C., 5% CO2 for 48 hours. […] The data are represented as the mean of concentration (pg/ml) from triplicate samples, and IC50 values are calculated as described above. […]

For another test, the system named is B cells from Buffy Coat. Nature of the test: CXCL13-induced B cell migration (transwell). To be noted: for cell count (migrated B cells): mean of 4 wells. Format: cell-based, human. As for the experimental part: PBMC were isolated from Buffy Coat as described above. Cells were washed two times with PBS and then resuspended at 5×10^7/mL in PBS containing 2% FBS and 1 mM EDTA. Further B cell purification was performed via depletion of non-B cells with an EasySep™ Human B Cell Enrichment Kit (STEMCELL Technologies #19054) according to the manufacture's instruction. In brief, 4×10^8 PBMCs in 8 ml isolation buffer were incubated with 400 ul of enrichment cocktail in a 14 mL round-bottom tube for 10 minutes at room temperature. PBMC were further incubated with 600 ul of magnetic particles for 5 minutes at room. For B cell isolation, the tube was placed into the magnet for 5 min and enriched B cells were collected in a fresh 14 ml tube. Cells were then washed and resuspended at 5×10^6/mL in RPMI 1640 medium supplemented with 10% FBS, Gentamycine (50 ug/ml), Insulin-Transferrin-Selenium and P-Mercaptoethanol (50 uM).
Isolated B cells were dispensed to 5 ml round-bottom tube (Costar #352054) and incubated with pre-diluted compound A resulting in a dilution with a final concentration of 10, 1, 0.1 or 0.01 uM. Control samples were pretreated with DMSO to obtain a final concentration of 0.1% DMSO. Samples were mixed thoroughly and incubated in a water bath at 37° C. for 30 minutes. Some 235 ul of CXCL13 (R&D Systems #801-CX) in a dilution with a final concentration of 100 nM was added to the wells of the 96-well transwell receiver plate (Costar #3387). Control wells were filled with 235 ul medium. The 5 um permeable support insert was added to the receiver plate and filled with 80 ul of pre-incubated B cells. Transwell plate was incubated in a humified incubator at 37° C. for 3 h. Permeable support insert was removed and cell number in receiver plate was assessed by flow cytometry.

Broadly, the IC50 is the concentration needed to halve the response being measured. For orientation: inhibition means the percentage by which the read-out fell short of the control. High values mean a strong effect, low ones a weak effect.

Like-named read-outs stand apart in the source and are kept apart here.

For `CCC(=O)N1CC[C@H](Nc2ncnc3c2CN(c2cnc(OC)c(C(F)(F)F)c2)CC3)C1` [Compound A, 1-{(S)-3-[6-(6-Methoxy-5-trifluoromethyl-pyridin-3-yl)-5,6,7,8-tetrahydro-pyrido[4,3-d]pyrimidin-4-ylamino]-pyrrolidin-1-yl}-propan-1-one], the IC50 in test [1] was 234 nM; in test [2] (read-out: IC50 IL-6), 22 nM; in test [2] (read-out: IC50 TNFα), 28 nM. In the test on B cells from Buffy Coat (Homo sapiens, B-cell, compound A 10 nM), this compound displayed an inhibition at 0.01 µM of 13%. Besides, in the test with B cells from Buffy Coat (Homo sapiens, B-cell, compound A 100 nM), the inhibition at 0.1 µM came out at 39%. In the test with B cells from Buffy Coat (Homo sapiens, B-cell, compound A 1000 nM), this compound yielded an inhibition at 1 µM of 52%. In the test with B cells from Buffy Coat (Homo sapiens, B-cell, compound A 10000 nM), at 10 µM the inhibition was 79%. The “cell count (migrated B cells)” value in the test with B cells from Buffy Coat (compound A 10 nM) turned out to be 6165; in the test with B cells from Buffy Coat (compound A 100 nM), 4556; in the test on B cells from Buffy Coat (compound A 1000 nM), 3743; with B cells from Buffy Coat (compound A 10000 nM) it was 2043.

Values taken from patent US20190038628A1, “USE OF INHIBITORS OF THE ACTIVITY OR FUNCTION OF PI3K FOR THE TREATMENT OF PRIMARY SJOGREN'S SYNDROME” (Novartis AG, priority 2016, published 2019).
